Results: patent US8293803B2, “Retinoid compounds and their use” (Reinnervate Limited, priority 2006, dated 2012)

Key:
[1] = tested on: human pluripotent stem cells; test: Differentiation of human pluripotent stem cells, morphology and immunocytochemistry / immunofluorescent microscopy; assay type: cell-based; conditions: for formation of neurons: confirmed by immunocytochemistry
Method: (§1) The biological activity of compounds 6, 10, 11, 12 and 13 were determined by exposing these molecules at various concentrations to different mammalian stem cell systems, namely (1) human pluripotent stem cells; and (2) rat adult neuroprogenitor cells.
Tissue development by human pluripotent stem cells closely resembles that which occurs during normal embryogenesis in utero and this cell system is a proven and accepted model of cell differentiation (Przyborski et al, Stem Cells Dev., 2004, 13:400-408). […]

[2] = Stability in D6-DMSO, 3 days dark under air versus fluorescent light (1H NMR); assay type: physicochemical
Source text: FIG. 6 ^1H NMR (500 MHz) spectrum (d 5.40-7.80) of ATRA in D6-DMSO in a glass NMR tube after 3 days in the dark under air (top), versus 3 days exposure to fluorescent light (bottom).
FIG. 7 ^1H NMR (500 MHz) spectrum (d 7.20-8.10) of EC23 (10a(i) (R′═H)) in D6-DMSO in a glass NMR tube after 3 days in the dark under air (top), versus 3 days exposure to fluorescent light (bottom).
In order to study the relative stability of certain synthetic retinoids versus the natural systems, solutions of each were exposed to different environmental conditions and then studied by NMR.

[3] = tested on: neuroprogenitor cells derived from the adult rat hippocampus; test: Differentiation of adult neuroprogenitor cells; assay type: cell-based; conditions: adult rat hippocampal neuroprogenitor cells; β-tubulin-III staining
Method: as §1
The biological activity of the synthetic retinoid EC23 (10a(i)) was also evaluated by exposing it to neuroprogenitor cells derived from the adult rat hippocampus. […] Immunocytochemical staining for the marker β-tubulin-III was used to confirm neuronal identity (data not shown).

[4] = tested on: human pluripotent TERA2.cl.SP12 embryonal carcinoma stem cells; test: Flow cytometry of cell surface antigen expression on human pluripotent stem cells; assay type: cell-based; conditions: 14 day test period; comparable to non-isomerised ATRA
Method: FIG. 8 Flow cytometric analysis of cell surface antigen expression for markers of stem cells (ssea-3, tra-1-60) and differentiated derivatives (vinis-53, a2b5) when cultures of human pluripotent embryonal carcinoma stem cells (TERA2.SP12) exposed to either 10 μM ATRA or 10 μM EC23 (10a(i) (R′═H)).
FIG. 9 Flow cytometric analysis of cell surface antigen expression on human pluripotent TERA2.cl.SP12 embryonal carcinoma stem cells (undiff) and their differentiated derivatives after 7 days exposure to either ATRA; 3Me-CEBX (12); 3Me-EC19 (10b(ii) R′═H); 3Me-EC23 (10b(i) (R′═H)); 4Me-TTN (6b(i)(R′═H)); all used at 1 μM. DMSO was used as a vehicle control.
as §1
Tissue development by human pluripotent stem cells closely resembles that which occurs during normal embryogenesis in utero and this cell system is a proven and accepted model of cell differentiation (Przyborski et al, Stem Cells Dev., 2004, 13:400-408).
The expression of cell surface antigens that are known to change as these stem cells commit to differentiate, was assessed by flow cytometry.
Flow cytometry was also used to assay for the effect(s) of compounds 6, 10 and (FIGS. 8 and 9).

[5] = tested on: TERA2.cl.SP12 cells; test: Proliferation and cytotoxicity in TERA2.cl.SP12 cultures; assay type: cell-based, human
[6] = Photoisomerisation under UV light (HNMR); assay type: physicochemical; conditions: over 12 hours
Method: (§2) In order to test the sensitivity of the natural retinoids, 10 mM samples in either DMSO or deuterochloroform were exposed to either 37° C., laboratory light (approximately 500 lux), white light (approximately 1250 lux) or UV light. Upon isomerisation HNMR spectra of samples were taken and compared to HNMR spectra of pure samples. The % peak intensities from the HNMR spectra were used to quantify levels of the different retinoic acids and any other compounds that may be present.
(§3) The sensitivity of retinoic acids to light was tested by placing samples of ATRA, 9CRA and 13CRA in one of three lighting conditions for varying lengths of time. Samples were exposed to either normal laboratory light conditions, white light or UV light. HNMR spectra were then compared to those of pure samples.
FIGS. 4 and 5 show the relative ratios of the natural retinoic acids found in samples of ATRA and 13CRA isomerised in UV light for 1 hour and 12 hours.
Samples of synthetic retinoids 12(ii), 12(i) and 13 were exposed to 1 hour of laboratory light, 1 hour of white light and 1 hour of UV light. HNMR spectra from samples exposed to lab light and white light were identical to those of pure compounds. […] UV light is emitted at a frequency likely to excite the conjugated double bond region of these synthetic retinoids, resulting in the slight degradation observed. […]

[7] = Photoisomerisation under laboratory light (HNMR); assay type: physicochemical; conditions: laboratory light (approx. 500 lux), 1 hour and 24 hours
Method: as §2, §3
The relative ratios of the natural retinoic acid isomers found in samples of ATRA and 13CRA isomerised in lab light for 1 hour and 24 hours can be seen in FIGS. 1 and 2. The new peaks in HNMR spectra increased in size, and so levels of isomerisation products increased over 24 hours but not to any great extent.
Samples of synthetic retinoids 12(ii), 12(i) and 13 were exposed to 1 hour of laboratory light, 1 hour of white light and 1 hour of UV light. HNMR spectra from samples exposed to lab light and white light were identical to those of pure compounds. […]

[8] = Temperature sensitivity of retinoic acids at 37 °C (HNMR); assay type: physicochemical; conditions: 37° C. water bath, HNMR peak intensities
Method: as §2
Temperature sensitivity was tested by placing solutions of retinoic acids in a 37° C. water bath for varying time lengths. After 1 hour at 37° C. approximate levels of the initial retinoic acid were 85% for a 13CRA sample and 100% for an ATRA sample. This decreased to 73% for a 13CRA sample and 86% for an ATRA sample after 24 hours.

[9] = Stability at room temperature for 1 week (HNMR); assay type: physicochemical
Method: as §2
Samples of ATRA and 13CRA, were left at room temperature for 1 week. The degraded solution of 13CRA contained around 78% 13CRA. […] All of the above experiments highlight retinoic acids inherent instability, not only in light, but also at 37° C. and even at room temperature.

[10] = ATRA in ethanol, white light, 30 minutes; cited from earlier work
[11] = Photoisomerisation under white light (HNMR); assay type: physicochemical
Method: as §2, §3
Samples of synthetic retinoids 12(ii), 12(i) and 13 were exposed to 1 hour of laboratory light, 1 hour of white light and 1 hour of UV light. HNMR spectra from samples exposed to lab light and white light were identical to those of pure compounds. […] UV light is emitted at a frequency likely to excite the conjugated double bond region of these synthetic retinoids, resulting in the slight degradation observed. 12(ii) and 12(i) were stable under laboratory light and white light. 13 was stable when exposed to all forms of light.

[12] = Stability (summary statement); assay type: physicochemical; conditions: conditions not given
Source text: (§4) The application of this technology to systems both with and without a methyl group (e.g. in 6a versus 6b), is important because it allows control of relative rotational orientation of the aryl and vinyl groups which has important implications for the control of conformation as a design principle for developing receptor-selective retinoid analogues.

[13] = tested on: stem cells; test: Modulation of cell differentiation (summary statement); assay type: cell-based; conditions: conditions not given
Method: as §4, §1

[14] = 10 μM, 21 days, immunofluorescent microscopy
[15] = 3 days exposure to fluorescent light, DMSO, NMR
[16] = 1 hour, 10 mM in DMSO or deuterochloroform

CC1(C)CCC(C)(C)c2cc(C#Cc3ccc(C(=O)O)cc3)ccc21 [10a(i), 4-(5,5,8,8-Tetramethyl-5,6,7,8-tetrahydro-naphthalen-2-ylethynyl)benzoic acid]
epithelial plaques (cytokeratin-8) [1, 14]: very few, if any, epithelial plaques
formation of neurons / neuronal differentiation [1, 14]: consisting primarily of cells undergoing neuronal differentiation
nestin expression [1, 14]: strong expression for nestin
behaviour compared with natural ATRA ([1]; human pluripotent stem cells): essentially identical behaviour to natural ATRA
formation of neurons ([1]; morphology): induced the formation of morphologically identifiable neurons
stability by NMR ([2]; 3 days, dark under air and fluorescent light, DMSO (same conditions as ATRA)): completely stable
differentiation into neurons [3]: differentiate into well-defined neurons
expression of differentiation antigens A2B5 and VINIS-53 [4]: marked increases in expression
expression of stem cell markers TRA-1-60 and SSEA-3 [4]: suppression

CC1(C)CCC(C)(C)c2cc(C#Cc3cccc(C(=O)O)c3)ccc21 [10a(ii)]
cells immuno-positive for Tuj-1 and NF200 [1, 14]: only a few cells immuno-positive
epithelial plaques (cytokeratin-8) [1, 14]: large numbers of cytokertin-8 positive epithelial plaques
formation of neurons / neuronal differentiation [1, 14]: formation of very few neurons
nestin expression [1, 14]: nestin staining reduced
formation of epithelial cells ([1]; morphology): formation of epithelial cells
formation of neurons ([1]; morphology): Neurons were not identified

CC1(C)CCC(C)(C)c2cc(C#Cc3cccc(C(=O)NO)c3)ccc21 [11a(ii), 3-(5,5,8,8-Tetramethyl-5,6,7,8-tetrahydronaphthalen-2-ylethynyl)benzohydroxamic acid]
cytotoxicity: time to kill the cells ([5]; TERA2.cl.SP12 cells, described as potent cytotoxicity): ≤ 4 days
effect on proliferation of the cultures ([5]; cultures grown in its presence): halted proliferation almost instantly

CC1=C(/C=C/C(C)=C/C=C/C(C)=C/C(=O)O)C(C)(C)CCC1 [ATRA, All-trans-retinoic acid]
epithelial plaques (cytokeratin-8) [1, 14]: numerous epithelial plaques
formation of neurons / neuronal differentiation [1, 14]: induced the formation of neurons
amount remaining [2, 15]: 37%
isomerisation and degradation [2, 15]: 63%
stability by NMR ([2]; 3 days in the dark in air in DMSO): reasonably stable
degradation in UV light [6]: rapidly degraded
relative stability in laboratory light [7]: marginally more stable than 13CRA
differentiation into neurons [3]: primarily form neurons
approximate level of the initial retinoic acid [8, 16]: ~100%
approximate level of the initial retinoic acid ([8]; 24 hours): ~86%
content of the initial retinoic acid in the solution [9]: 94%
relative concentration of 9, 13-dicis RA in the isomerised ATRA sample [10]: 5%
relative concentration of 9CRA in the isomerised ATRA sample [10]: 10%
relative concentration of 11CRA in the isomerised ATRA sample [10]: 10%
relative concentration of 13CRA in the isomerised ATRA sample [10]: 30%
relative concentration of ATRA in the isomerised ATRA sample [10]: 25%
relative concentration of an unidentified compound in the isomerised ATRA sample [10]: 20%
level of ATRA ([11]; white light (approx. 1250 lux), 1 hour): 76%
level of ATRA ([11]; white light, 6 hours): 43%
level of ATRA ([11]; white light, 24 hours): 21%

COC(=O)c1cccc(C=C(C)c2ccc3c(c2)C(C)(C)CCC3(C)C)c1 [Compound 6aii, 3-[2-(5,5,8,8-Tetramethyl-5,6,7,8-tetrahydronaphthalen-2-yl)-propenyl]-benzoic acid methyl ester]
stability [12]: particularly stable
efficacy in modulating cell differentiation [13]: efficacious in modulating cell differentiation

CC(=Cc1ccc(C(=O)O)cc1)c1cc2c(cc1C)C(C)(C)CCC2(C)C [Compound 6bi, 4-[2-(3,5,5,8,8-Pentamethyl-5,6,7,8-tetrahydro-naphthalen-2-yl)propenyl]benzoic acid]
stability [12]: particularly stable
efficacy in modulating cell differentiation [13]: efficacious in modulating cell differentiation

CC1=C(/C=C/C(C)=C/C=C/C(C)=C\C(=O)O)C(C)(C)CCC1 [Compound 13CRA, 13-cis-retinoic acid]
degradation in UV light [6]: rapidly degraded
approximate level of the initial retinoic acid [8, 16]: ~85%
approximate level of the initial retinoic acid ([8]; 24 hours): ~73%
content of the initial retinoic acid in the solution [9]: around 78%
